Test results: patent US20240116946A1 (Gilead Sciences, Inc., priority 2022, published 2024)
Like-named read-outs stand apart in the source and are kept apart here.

Experiments:
[1] = tested on: SARS-CoV-2-NLuc; test: microbe, parasite or virus in culture; type: cell-based, SARS Coronavirus 2
[2] = target: recombinant SARS-CoV-2 Main protease (Mpro) (Severe acute respiratory syndrome coronavirus 2 (2019-nCoV) (SARS-CoV-2), UniProt P0DTD1); test: Cov Mpro Biochemical IC50 Assay; conditions: fluorogenic peptide substrate
[3] = Severe acute respiratory syndrome coronavirus, 48 h, read-out: MPro EC50
[4] = recombinant SARS-CoV-2 Mpro, read-out: MPro IC50

| Structure (SMILES) | EC50 [1, 3] | IC50 [2, 4] | EC50 ([1]; read-out: MPro EC50) | EC50 ([1]; Severe acute respiratory syndrome coronavirus, 48 h; read-out: MPro EC50) | IC50 ([2]; MPro IC50, recombinant SARS-CoV-2 Mpro) |
| --- | --- | --- | --- | --- | --- |
| O=c1[nH]c2cc(-c3cccc4c3CCC4)sc2c(=O)n1-c1cncc2ccccc12 [Example 168, 6-(2,3-dihydro-1H-inden-4-yl)-3-(isoquinolin-4-yl)thieno[3,2-d]pyrimidine-2,4(1H,3H)-dione] | 810 nM | 615 nM |  |  |  |
| O=c1c2sc(-c3cccc4c3CCC4)cc2n(Cc2ccc(O)cc2)c(=O)n1-c1cncc2ccccc12 [Example 169] |  | 5550 nM | 744 nM |  |  |
| O=c1c2sc(-c3ncco3)cc2n(CC2CCCC2)c(=O)n1-c1cncc2ccccc12 [Example 170, 1-(cyclopentylmethyl)-3-(isoquinolin-4-yl)-6-(oxazol-2-yl)thieno[3,2-d]pyrimidine-2,4(1H,3H)-dione] | 421 nM | 192 nM |  |  |  |
| O=c1[nH]c2cc(-c3cccc4c3CCC4)ccc2c(=O)n1-c1cncc2ccccc12 [Example 171, 7-(2,3-dihydro-1H-inden-4-yl)-3-(isoquinolin-4-yl)quinazoline-2,4(1H,3H)-dione] | 4200 nM | 3790 nM |  |  |  |
| O=c1[nH]c2cc(-c3c(Cl)ccc4c3OCO4)ccc2c(=O)n1-c1cncc2ccccc12 [Example 172] | 75.8 nM | 159 nM |  |  |  |
| O=C1Nc2ccc(-c3cccc(Cl)c3-c3ccc4c(=O)n(-c5cncc6ccccc56)c(=O)[nH]c4c3)cc2C1(F)F [Example 173] | 650 nM | 380 nM |  |  |  |
| COc1ccc(Cl)c(-c2cc3[nH]c(=O)n(-c4cncc5ccccc45)c(=O)c3s2)c1 [Example 174, 6-(2-chloro-5-methoxyphenyl)-3-(isoquinolin-4-yl)thieno[3,2-d]pyrimidine-2,4(1H,3H)-dione] | 30.7 nM | 6.99 nM |  |  |  |
| COc1ccc2cncc(-n3c(=O)[nH]c4cc(-c5ccccc5Cl)sc4c3=O)c2c1 [Example 175, 6-(2-chlorophenyl)-3-(6-methoxyisoquinolin-4-yl)thieno[3,2-d]pyrimidine-2,4(1H,3H)-dione] | 26.6 nM | 4.68 nM |  |  |  |
| O=c1c2sc(-c3ccccc3Cl)cc2[nH]c(=S)n1-c1cncc2ccccc12 [Example 176] |  |  |  | 292 nM | 330 nM |
| Cc1cc(F)ccc1-c1cc2[nH]c(=O)n(-c3cncc4ccccc34)c(=O)c2s1 [Example 177] | 137 nM | 89.7 nM |  |  |  |
| COc1cc(F)ccc1-c1cc2[nH]c(=O)n(-c3cncc4ccccc34)c(=O)c2s1 [Example 178] | 196 nM | 221 nM |  |  |  |
| O=c1[nH]c2cc(-c3c(Cl)cccc3-c3ccc4c(c3)CCO4)ccc2c(=O)n1-c1cncc2ccccc12 [Example 179] | 84.8 nM | 195 nM |  |  |  |
| O=c1[nH]c2cc(-c3cc(C(F)(F)F)ccc3Cl)ccc2c(=O)n1-c1cncc2ccccc12 [Example 180] | 1960 nM | 3740 nM |  |  |  |
| O=c1[nH]c2cc(-c3cc(OC(F)(F)F)ccc3Cl)ccc2c(=O)n1-c1cncc2ccccc12 [Example 181] | 438 nM | 1220 nM |  |  |  |
| N#Cc1ccc(Cl)c(-c2ccc3c(=O)n(-c4cncc5ccccc45)c(=O)[nH]c3c2)c1 [Example 182] | 90 nM | 45.1 nM |  |  |  |
| O=c1[nH]c2cc(-c3ccc(F)cc3Cl)ccc2c(=O)n1-c1cncc2ccccc12 [Example 183] | 354 nM | 585 nM |  |  |  |
| N#Cc1cccc(-c2cccc(Cl)c2-c2ccc3c(=O)n(-c4cncc5ccccc45)c(=O)[nH]c3c2)c1 [Example 184] | 40 nM | 92.5 nM |  |  |  |
| NC(=O)c1cncc(-c2cccc(Cl)c2-c2ccc3c(=O)n(-c4cncc5ccccc45)c(=O)[nH]c3c2)c1 [Example 185] | 489 nM | < 3.01 nM |  |  |  |
| COc1ncc(-c2cccc(Cl)c2-c2ccc3c(=O)n(-c4cncc5ccccc45)c(=O)[nH]c3c2)cc1C#N [Example 186] | 50.7 nM | 112 nM |  |  |  |
| O=c1[nH]c2cc(-c3c(Cl)cccc3-c3cccnc3)ccc2c(=O)n1-c1cncc2ccccc12 [Example 187] | 17.6 nM | 29.4 nM |  |  |  |
| CN(C)C(=O)c1cccc(-c2cccc(Cl)c2-c2ccc3c(=O)n(-c4cncc5ccccc45)c(=O)[nH]c3c2)c1 [Example 188] | 59.4 nM | 121 nM |  |  |  |
